In patent US20260285850A1, “SUBSTITUTED OXAZOLIDINONES AND IMIDAZOLINONES AS HERBICIDES” (FMC CORPORATION, priority 2023, published 2026):

How the values were obtained:
Assay type in all cases: in vivo
[1] = tested on: sedge, umbrella (small-flower umbrella sedge, Cyperus difformis); experiment: Test B flooded paddy test, visual plant response rating 0-100; details: 250 g ai/ha, Flood, applied to paddy water, evaluated after 13 days
Method in brief: (§1)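 In this flooded assay, 2-leaf seedlings received compound through the water layer, kept at 3 cm over the soil. Plants were held 13 days in a greenhouse and then visually compared with control pots.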

[2] = tested on: barnyardgrass (Echinochloa crusgalli); experiment: as above; details: 250 g ai/ha, Flood, applied to paddy water, evaluated after 13 days
Method in brief: as §1

[3] = tested on: ducksalad (Heteranthera limosa); experiment: as above; details: 250 g ai/ha, Flood, applied to paddy water, evaluated after 13 days
Method in brief: as §1

rice (Oryza sativa) = experiment: as above; details: 250 g ai/ha, Flood, applied to paddy water, evaluated after 13 days
Method in brief: as §1

[4] = tested on: barnyardgrass (Echinochloa crus-galli); experiment: Test A postemergence application, visual injury rating 0-100
Method in brief: (§2)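 Directed preemergence spray onto seeded soil or postemergence spray onto 2-10 cm plants (loam plus sand); compound carried in surfactant-containing non-phytotoxic solvent. Injury rated by eye after 10 d greenhouse growth; 0 = no effect, 100 = complete control.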

[5] = tested on: blackgrass (Alopecurus myosuroides); experiment: as above
Method in brief: as §2

corn (Zea mays) [6] = experiment: as above
Method in brief: as §2

[7] = tested on: palmer (palmer amaranth, palmer pigweed, Amaranthus palmeri); experiment: as above
Method in brief: as §2

[8] = tested on: oat, wild (wild oat, Avena fatua); experiment: as above
Method in brief: as §2

[9] = tested on: green foxtail (Setaria viridis); experiment: as above
Method in brief: as §2

soybean (Glycine max) [10] = experiment: as above
Method in brief: as §2

[11] = tested on: ryegrass, Italian (italian ryegrass, Lolium multiflorum); experiment: as above
Method in brief: as §2

[12] = tested on: ragweed (common ragweed, Ambrosia artemisiifolia); experiment: as above
Method in brief: as §2

[13] = tested on: wheat (Triticum aestivum); experiment: as above
Method in brief: as §2

[14] = tested on: horseweed (Erigeron canadensis); experiment: as above
Method in brief: as §2

kochia (Bassia scoparia) [15] = experiment: as above
Method in brief: as §2

[16] = tested on: barnyardgrass (Echinochloa crus-galli); experiment: Test A preemergence soil spray, visual injury rating 0-100; details: 10 days
Method in brief: as §2

[17] = tested on: blackgrass (Alopecurus myosuroides); experiment: as above; details: 10 days
Method in brief: as §2

corn (Zea mays) [18] = experiment: as above; details: 10 days
Method in brief: as §2

[19] = tested on: palmer (palmer amaranth, palmer pigweed, Amaranthus palmeri); experiment: as above; details: 10 days
Method in brief: as §2

[20] = tested on: oat, wild (wild oat, Avena fatua); experiment: as above; details: 10 days
Method in brief: as §2

[21] = tested on: green foxtail (Setaria viridis); experiment: as above; details: 10 days
Method in brief: as §2

soybean (Glycine max) [22] = experiment: as above; details: 10 days
Method in brief: as §2

[23] = tested on: ryegrass, Italian (italian ryegrass, Lolium multiflorum); experiment: as above; details: 10 days
Method in brief: as §2

[24] = tested on: ragweed (common ragweed, Ambrosia artemisiifolia); experiment: as above; details: 10 days
Method in brief: as §2

[25] = tested on: wheat (Triticum aestivum); experiment: as above; details: 10 days
Method in brief: as §2

kochia (Bassia scoparia) [26] = experiment: as above; details: 10 days
Method in brief: as §2

[27] = 62 g ai/ha, postemergence, 10 days, 0 = no effect, 100 = complete control
[28] = Postemergence, 16 g ai/ha, greenhouse 10 days, 0 no effect, 100 complete control
[29] = 62 g ai/ha, 0 = no effect, 100 = complete control

CCOC(=O)C1=CCC(NC(=O)C2(C)CN(c3cc(Cl)cc(Cl)c3)C(=O)O2)C1 (centres unmarked) [Compound 114]
Plant response rating, Sedge, Umbrella (0 to 100 scale, 0 is no effect and 100 is complete control) [1]: 98 | Plant response rating, Barnyardgrass (0 to 100 scale, 0 is no effect and 100 is complete control) [2]: 90 | Plant response rating, Ducksalad (0 to 100 scale, 0 is no effect and 100 is complete control) [3]: 80 | Plant response rating, Rice (0 to 100 scale, 0 is no effect and 100 is complete control) (rice (Oryza sativa)): 55 | Barnyardgrass plant response rating (0-100) [4, 27]: 100 | Barnyardgrass plant response rating (0 to 100 scale) [4, 28]: 100 | Blackgrass plant response rating (0-100) [5, 27]: 80 | Blackgrass plant response rating (0 to 100 scale) [5, 28]: 50 | Corn plant response rating (0-100) (corn (Zea mays) [6]; [27]): 100 | Corn plant response rating (0 to 100 scale) (corn (Zea mays) [6]; [28]): 100 | Pigweed, Palmer plant response rating (0-100) [7, 27]: 90 | Pigweed, Palmer plant response rating (0 to 100 scale) [7, 28]: 90 | Oat, Wild plant response rating (0-100) [8, 27]: 40 | Oat, Wild plant response rating (0 to 100 scale) [8, 28]: 30 | Foxtail, Green plant response rating (0-100) [9, 27]: 90 | Foxtail, Green plant response rating (0 to 100 scale) [9, 28]: 80 | Soybean plant response rating (0-100) (soybean (Glycine max) [10]; [27]): 70 | Soybean plant response rating (0 to 100 scale) (soybean (Glycine max) [10]; [28]): 50 | Ryegrass, Italian plant response rating (0-100) [11, 27]: 80 | Ryegrass, Italian plant response rating (0 to 100 scale) [11, 28]: 50 | Ragweed plant response rating (0-100) [12, 27]: 50 | Ragweed plant response rating (0 to 100 scale) [12, 28]: 10 | Wheat plant response rating (0-100) [13, 27]: 90 | Wheat plant response rating (0 to 100 scale) [13, 28]: 80 | Horseweed plant response rating (0-100) [14, 27]: 70 | Horseweed plant response rating (0 to 100 scale) [14, 28]: 20 | Kochia plant response rating (0-100) (kochia (Bassia scoparia) [15]; [27]): 90 | Kochia plant response rating (0 to 100 scale) (kochia (Bassia scoparia) [15]; [28]): 80 | Barnyardgrass plant response rating ([16]; 16 g ai/ha, 0 to 100 scale): 0 | Barnyardgrass plant response rating (0-100) [16, 29]: 90 | Blackgrass plant response rating ([17]; 16 g ai/ha, 0 to 100 scale): 0 | Blackgrass plant response rating (0-100) [17, 29]: 20 | Corn plant response rating (corn (Zea mays) [18]; 16 g ai/ha, 0 to 100 scale): 0 | Corn plant response rating (0-100) (corn (Zea mays) [18]; [29]): 30 | Pigweed, Palmer plant response rating ([19]; 16 g ai/ha, 0 to 100 scale): 40 | Pigweed, Palmer plant response rating (0-100) [19, 29]: 90 | Oat, Wild plant response rating ([20]; 16 g ai/ha, 0 to 100 scale): 0 | Oat, Wild plant response rating (0-100) [20, 29]: 20 | Foxtail, Green plant response rating ([21]; 16 g ai/ha, 0 to 100 scale): 0 | Foxtail, Green plant response rating (0-100) [21, 29]: 90 | Soybean plant response rating (soybean (Glycine max) [22]; 16 g ai/ha, 0 to 100 scale): 0 | Soybean plant response rating (0-100) (soybean (Glycine max) [22]; [29]): 10 | Ryegrass, Italian plant response rating ([23]; 16 g ai/ha, 0 to 100 scale): 0 | Ryegrass, Italian plant response rating (0-100) [23, 29]: 80 | Ragweed plant response rating ([24]; 16 g ai/ha, 0 to 100 scale): 0 | Ragweed plant response rating (0-100) [24, 29]: 0 | Wheat plant response rating ([25]; 16 g ai/ha, 0 to 100 scale): 0 | Wheat plant response rating (0-100) [25, 29]: 40 | Kochia plant response rating (kochia (Bassia scoparia) [26]; 16 g ai/ha, 0 to 100 scale): 0 | Kochia plant response rating (0-100) (kochia (Bassia scoparia) [26]; [29]): 0
